In patent US20190083455A1, “METHODS AND COMPOSITIONS FOR THE MODULATION OF BETA-ENDORPHIN LEVELS” (The General Hospital Corporation, priority 2014, published 2019):
Counter-ions that a name gives are not always drawn.

What was measured:
C57Bl/6 mice = experiment: Analgesic threshold testing (von Frey test and hot plate test) during UV/mock regimen; type: in vivo; details: 10 mg/kg ip 15 min prior to testing; chronically UV-irradiated mice
From the text: Mice underwent mechanical and thermal analgesic testing during UV/mock treatment regimens using the von Frey test (Kwan et al., 2006) and the hot plate test respectively (Mogil et al., 1999). In the von Frey test, mice were placed in individual enclosures on an elevated wire mesh rack and the plantar surface of the left hind paw was serially poked with fibers of increasing tensile strength (10 times per fiber at a rate of 1/second) until a paw withdrawal response was elicited on 2/10 pokes. In the hot plate test, mice were placed on a 52° C. hot plate and time to response (paw flutter, paw licking, jumping) was measured. […]
We developed a UV-exposure mouse model in which dorsally-shaved mice received a dose of 50 mJ/cm^2 of UVB, 5 days per week for 6 weeks, an empirically-derived sub-erythemic dose which is approximately equal to 20-30 minutes of ambient midday sun exposure in Florida during the summer for a fair-skinned person of average tanning ability (Fitzpatrick skin phototypes 2-3) (D'Orazio et al., 2006; Technology-Planning-and-Management-Corporation, 2000; US-EPA, 1994). […] We quantified mechanical and thermal nociceptive thresholds over six weeks of daily UV exposure. Mechanical nociception was measured by the von Frey test (Kwan et al., 2006), which exposes fibers of increasing tensile strength to the plantar paw surface to elicit a paw withdrawal response. […]

β-endorphin = experiment: Plasma β-endorphin radioimmunoassay in UV/mock irradiated mice; type: in vivo; details: mice treated twice a week with Naloxone or Saline; daily UV or Mock irradiation
From the text: Mice were dorsally shaved two days prior to the start of radiation exposure, then exposed to 50 mJ/cm^2/day of UVB, an empirically determined sub-erythematic dose, 5 days per week (Monday-Friday) for 6 weeks. If there were patches of fur re-growth, mice were re-shaved once every two weeks.
For blood draws, mice were placed in a standard restrainer and tail vein blood was collected in EDTA microvette tubes containing 0.6TIU aprotinin. Mice underwent blood draws prior to the start of radiation exposure, once per week during the radiation exposure regimen, and once per week for two weeks following cessation of the UV regimen. Blood was drawn in the mornings prior to radiation exposure on Fridays.
Tubes of collected blood were maintained on ice until centrifugation at 3500 RPM for 20 minutes at 4° C. Plasma was isolated and samples were stored at −80° C. until β-endorphin measurement. β-endorphin was quantified by radioimmunoassay (Phoenix Pharmaceuticals, Burlingame, Calif.).

C=CCN1CC[C@]23c4c5ccc(O)c4O[C@H]2C(=O)CC[C@@]3(O)[C@H]1C5 [naloxone, naloxone hydrochloride]
mechanical nociceptive threshold (von Frey) (C57Bl/6 mice): suppressed the UV-induced increases in mechanical and thermal nociceptive thresholds
thermal nociceptive threshold (hot plate 52° C.) (C57Bl/6 mice): suppressed the UV-induced increases in mechanical and thermal nociceptive thresholds
plasma β-endorphin (β-endorphin): no significant effect of Naloxone treatment within either group
